For one series, the system named is Murine colon C26 cells. The experiment in a line: Tumor cell proliferation assay (ATP Lite), C26. It is filed as cell-based. Particulars: 4 days incubation. Here is the method:
(§1) Assay 2: Tumor Cell Proliferation Assays (ATP Lite)
(§2) Murine colon C26, human melanoma A375 and human melanoma Mel5 cells were plated in 96 well Corning white plates (1500 cells/well for C26, and 2000 cells/well for A375, and MiaPaCa-2) and cultured overnight at 37° C. in 5% CO2. Inhibitors were serially diluted in 100% DMSO and subsequently added to cells to reach a final concentration of 0.25% DMSO. The cells were incubated for 4 days in the presence of test compounds in cell growth media (DMEM with 10% fetal bovine serum, 2 mM glutamine for C26, and MiaPaCa-2, and RPMI with 10% fetal bovine serum, 2 mM glutamine for A375). Cell proliferation was quantitated using the ATP lite cell proliferation kit (Packard). Columns 2-4 show the concentration of compounds required to induce 50% cell death (IC50 in μM) of […]. With “+” meaning 100 μM<IC50≦10 μM and “++” IC50≦1 μM and “n.d.” means not determined.

A short description of series [1]: Microsomal stability assay, human liver microsomes. The format is in vitro ADME. Particulars: pooled human liver microsomes, pH 7.4; 3 μM compound, 0.5 mg/ml human liver microsomes, 37° C., 2 mM NADPH; read-out: HLM t½. How it is done: (§3) Assay 3: Microsomal Stability Assay
(§4) Compounds were tested on their stability in human, rat and mouse liver microsomal preparations (HLM, RLM and MLM respectively). At a final concentration of 3 μM, compounds were incubated at 37° C. with 0.5 mg/ml human, rat or mouse liver microsomes in a buffer containing 50 mM phosphate, pH 7.4 and 2 mM NADPH. Pooled human liver microsomes or pooled male rat liver microsomes (Sprague Dawley) were obtained from NatuTec (Frankfurt, Germany). Incubations without NADPH served as negative controls. Reactions were stopped after 0, 15, 30, 45 or 60 min by the addition of acetonitrile and microsomes were pelleted by centrifugation (10 min at 6200× g). Supernatants were analyzed by HPLC regarding the concentration of mother compound. Finally, the half-life of compounds in the regarding microsomal preparation was calculated.

Series [2] has as its system human melanoma A375 cells. Kind of series: Tumor cell proliferation assay (ATP Lite), A375. The format is cell-based. As to conditions: 4 days incubation. How it is done:
as §1, §2

The next series concerns the target human MEK1 (Homo sapiens, UniProt Q02750). The experiment in a line: Inhibition of human MEK1 kinase activity, time resolved fluorescence resonance energy transfer assay. It is filed as biochemical. As to conditions: 100 nM MEK1, 15 μM ATP, 300 nM ERK2, two hours. Here is the method: The activity of the compounds of the present invitation may be determined by the following procedure: Inhibition of human MEK1 kinase activity was monitored with a homogenous, fluorescence based assay. The assay uses time resolved fluorescence resonance energy transfer to probe for phosphorylation of […] by MEK1. The assay is carried out in low volume 96 well microtiterplates. In a total volume of 15 μl, compounds are incubated with 100 nM MEK1, 15 μM ATP, 300 nM ERK2 employing a buffer containing 20 mM TRIS/HCl, 10 mM MgCl2, 100 μM NaVO4, 1 mM DTT, and 0.005% Tween 20 (pH 7.4). After two hours, 5 nM Europium-anti-PY20 (Perkin Elmer) and 50 nM Anti-GST-Allophycocyanin (CisBio) in buffer containing 50 mM EDTA and 0,05% BSA are added and the reaction incubated for one hour in the dark. Time-resolved fluorescence is measured using a LJL-Analyst (Molecular Devices) with an excitation wavelength of 340 nm and an emission wavelength of 665 nm. The final concentration of DMSO is 2%. To assess the inhibitory potential of the compounds, IC50-values were determined.

Series [3] can be described thus: Microsomal stability assay, rat liver microsomes. The format is in vitro ADME. Particulars: male, Sprague Dawley, pooled rat liver microsomes, pH 7.4; 3 μM compound, 0.5 mg/ml rat liver microsomes, 37° C., 2 mM NADPH; read-out: RLM t½. How it is done:
as §3, §4
In general terms: Microsomes from liver hold many membrane-bound enzymes, among them those of drug oxidation.

The subject of series [4] is human melanoma Mel5 cells. Kind of series: Tumor cell proliferation assay (ATP Lite), Mel5. It is filed as cell-based. As to conditions: 4 days incubation. Here is the method: as §1, §2
Another series has as its system Tumors. As to conditions: patients; cited from earlier work.
For series [5] the following is noted: in vivo; cited from earlier work.

The structures appear in SMILES notation. pIC50: −log10 of the molar value.

human MEK1, sequence (Q02750 whole entry): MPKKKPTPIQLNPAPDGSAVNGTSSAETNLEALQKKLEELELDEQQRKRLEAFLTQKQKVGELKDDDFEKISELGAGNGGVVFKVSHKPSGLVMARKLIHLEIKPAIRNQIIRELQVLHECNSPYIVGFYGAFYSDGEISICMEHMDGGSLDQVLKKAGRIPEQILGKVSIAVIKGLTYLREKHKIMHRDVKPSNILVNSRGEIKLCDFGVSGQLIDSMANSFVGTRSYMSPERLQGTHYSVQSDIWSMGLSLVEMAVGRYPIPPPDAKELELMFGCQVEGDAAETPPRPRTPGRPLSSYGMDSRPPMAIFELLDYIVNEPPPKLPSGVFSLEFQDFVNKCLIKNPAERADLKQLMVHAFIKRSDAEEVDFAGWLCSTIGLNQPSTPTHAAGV

Usually pIC50 stands for the IC50 on a negative log10 scale, so that one unit is a factor of ten. As to `Cc1cc(I)ccc1Nc1cc(=O)n(C)cc1C(=O)NOC[C@@H](O)CO` [Compound 4c, 4-[(4-Iodo-2-methylphenyl)amino]-N-{[(2S)-2,3-dihydroxypropyl]oxy}-1-methyl-6-oxo-1,6-dihydropyridine-3-carboxamide], the “C26 cells IC50” value with Murine colon C26 cells is reported as “+ (100 μM<IC50≦10 μM)”. Moreover, the half-life at 3 μM in series [1] and in series [3] was over 2 h each time. The “A375 cells IC50” value in series [2] is reported as “+ (100 μM<IC50≦10 μM)”. This compound also gave a pIC50 at human MEK1 of at least 6.00.

On human MEK1, `Cc1cc(I)ccc1Nc1cc(=O)n(C)cc1C(=O)O` [Compound 3b, 4-(4-Iodo-2-methyl-phenylamino)-1-methyl-6-oxo-1,6-dihydro-pyridine-3-carboxylic acid] showed a pIC50 of at least 6.00.

On to `Cc1cc(Br)ccc1Nc1cc(=O)n(C)cc1C(=O)NO` [Compound 4a, 4-(4-Bromo-2-methyl-phenylamino)-1-methyl-6-oxo-1,6-dihydro-pyridine-3-carboxylic acid hydroxyamide], for which the “Mel5 cells IC50” value in series [4] was “+ (100 μM<IC50≦10 μM)”. In addition, the “C26 cells IC50” value in the series on Murine colon C26 cells was “+ (100 μM<IC50≦10 μM)”. In addition, the “A375 cells IC50” value in series [2] is “+ (100 μM<IC50≦10 μM)”. The compound also had a pIC50 at human MEK1 of at least 6.00.

As for `Cc1cc(Br)ccc1Nc1cc(=O)n(C)cc1C(=O)NOC[C@@H](O)CO` [Compound 4b, 4-[(4-Bromo-2-methylphenyl)amino]-N-{[(2S)-2,3-dihydroxypropyl]oxy}-1-methyl-6-oxo-1,6-dihydropyridine-3-carboxamide], the “Mel5 cells IC50” value in series [4] is on record as “+ (100 μM<IC50≦10 μM)”. The “C26 cells IC50” value in the series on Murine colon C26 cells was “+ (100 μM<IC50≦10 μM)”. Besides, the half-life at 3 μM in series [1] and in series [3] was over 2 h throughout. Further, the “A375 cells IC50” value in series [2] was “+ (100 μM<IC50≦10 μM)”. Moreover, at human MEK1, the pIC50 was at least 6.00.

`Cc1cc(Br)ccc1Nc1cc(=O)n(C)cc1C(=O)O` [Compound 3a, 4-(4-Bromo-2-methyl-phenylamino)-1-methyl-6-oxo-1,6-dihydro-pyridine-3-carboxylic acid]: the “Mel5 cells IC50” value in series [4] is reported as “+ (100 μM<IC50≦10 μM)”. Moreover, the “C26 cells IC50” value in the series on Murine colon C26 cells is recorded as “+ (100 μM<IC50≦10 μM)”. Also, the “A375 cells IC50” value in series [2] is listed as “+ (100 μM<IC50≦10 μM)”. For the same compound, the pIC50 at human MEK1 is at least 6.00.

`C=CCNc1nnc(-c2cn(C)c(=O)cc2Nc2ccc(Br)cc2C)o1` [Compound 7a, 5-(5-Allylamino-[1,3,4]oxadiazol-2-yl)-4-(4-bromo-2-methyl-phenylamino)-1-methyl-1H-pyridin-2-one]: the half-life at 3 μM in series [1] and in series [3] was 0.517 to 2 h throughout. The pIC50 against human MEK1 is at least 6.00.

For `O=C(NOCC1CC1)c1ccc(F)c(F)c1Nc1ccc(I)cc1Cl` [PD-184352], the “efficacy in clinical phase II trials” value in the series with Tumors is recorded as “lacking efficacy”. In addition, the bioavailability result in series [5] is reported as “low”.

Values taken from patent US20070293544A1, “Novel 4-Arylamino Pyridone Derivatives as Mek Inhibitors for the Treatment of Hyper-Proliferative Disorders” (priority 2004, published 2007).
